# Where two headings read alike, the source gives them in different places.
# Key:
# [1] = target: T1, FLT3 receptor (MV4-11 cell line bearing an FLT3ITD mutant) (Homo sapiens, UniProt P36888, INS600HVDFREYEYD); assay: Inhibition of FLT3 receptor tyrosine kinase activity: proliferation of MV4-11 cells (CellTiter-Glo, 72 h); format: cell-based; details: 72 hours incubation, read-out: IC50 (concentration that inhibits 50% of the proliferation of the MV4-11 cells)
# T1 construct: MV4-11 cell line, which line is established from a leukaemia of constitutively active AML type bearing an FLT3ITD mutant; endogenous in cells; host or cells: MV4-11
# T1 sequence (P36888 with tags, fused parts or gaps INS600HVDFREYEYD): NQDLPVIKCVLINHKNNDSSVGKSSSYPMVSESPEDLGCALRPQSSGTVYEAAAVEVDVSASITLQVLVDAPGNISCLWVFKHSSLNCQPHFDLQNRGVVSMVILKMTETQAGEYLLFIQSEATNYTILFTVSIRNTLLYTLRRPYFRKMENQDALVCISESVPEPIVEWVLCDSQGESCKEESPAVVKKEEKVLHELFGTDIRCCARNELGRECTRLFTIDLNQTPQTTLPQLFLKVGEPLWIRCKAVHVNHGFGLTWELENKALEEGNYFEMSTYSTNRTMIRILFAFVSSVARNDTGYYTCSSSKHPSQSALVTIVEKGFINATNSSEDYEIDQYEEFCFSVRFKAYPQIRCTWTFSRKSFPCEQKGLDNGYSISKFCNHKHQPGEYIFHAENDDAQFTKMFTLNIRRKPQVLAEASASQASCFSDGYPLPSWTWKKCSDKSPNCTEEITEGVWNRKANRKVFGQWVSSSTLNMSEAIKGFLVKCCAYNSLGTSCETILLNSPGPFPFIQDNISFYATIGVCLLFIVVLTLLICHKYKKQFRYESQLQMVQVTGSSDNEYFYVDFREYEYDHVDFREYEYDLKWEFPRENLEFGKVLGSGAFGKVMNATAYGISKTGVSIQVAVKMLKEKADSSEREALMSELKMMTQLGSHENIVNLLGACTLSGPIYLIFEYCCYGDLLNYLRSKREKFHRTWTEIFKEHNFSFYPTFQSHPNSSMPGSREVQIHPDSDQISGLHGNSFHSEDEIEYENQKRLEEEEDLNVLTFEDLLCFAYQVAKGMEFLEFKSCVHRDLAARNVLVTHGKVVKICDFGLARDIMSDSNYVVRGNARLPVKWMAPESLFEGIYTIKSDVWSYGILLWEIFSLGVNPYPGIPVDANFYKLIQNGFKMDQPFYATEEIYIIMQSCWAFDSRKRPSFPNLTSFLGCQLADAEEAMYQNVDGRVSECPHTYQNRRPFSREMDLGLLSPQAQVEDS
# Method: Measurement of Inhibition of the Tyrosine Kinase Activity of the FLT3 Receptor
# The inhibitory effect of the compounds according to the invention towards the tyrosine kinase activity of the FLT3 receptor was evaluated on an MV4-11 cell line, which line is established from a leukaemia of constitutively active AML type bearing an FLT3ITD mutant. The inhibitory activity is correlated to the inhibition of cell growth, according to the protocols described by Spiekermann, K. et al., Blood, 2003, 101, (4) 1494-1504 and O'Farrell, A.-M. et al., Blood, 2003, 101, (9) 3597-3605.
# (§1) MV4-11 cells are washed with PBS buffer and inoculated in 96-well plates, at a density of 1×10^5 cells/ml (100 μL per well), in RPMI 1640 containing 10% FCS, in the presence or absence of the test compounds. After incubation for 72 hours, the viable cells are quantified by measuring the cellular ATP by means of the CellTiter-Glo® kit (Promega, Cat G7571). The cells are treated according to the instructions given by the kit manufacturer, and the luminescence is measured using a Luminoskan (Ascent, Labsystem) with the following parameters: measurement: single; integration time: 1000 ms, lag time: 5 s.
# The inhibitory activity with respect to the FLT3 receptor is given by the concentration that inhibits 50% of the proliferation of the MV4-11 cells.
# [2] = target: T2, fusion protein Tel/PDGF-R (PDGF-Rβ kinase domain) in HEK cells (Homo sapiens, UniProt P09619); assay: Ex vivo activity: plasma of orally treated mice tested on PDGF-R autophosphorylation in HEK Tel/PDGF-R cells (ELISA); design: species or system female Balb/c mice; details: HEK293, mouse, po, 30 mg/kg po, read-out: % inhibition of autophosphorylation of PDGFR tyrosine kinase in HEK cells
# T2 construct: the transmembrane and intracellular part of the PDGF-Rβ receptor; N-terminal part of the Tel transcription factor (ETV6); expressed in transfected cells; host or cells: HEK cells (transient transfection); the other entry of the earlier key: ETV6 (P41212, Transcription factor ETV6)
# T2 sequence (P09619 with tags, fused parts or gaps): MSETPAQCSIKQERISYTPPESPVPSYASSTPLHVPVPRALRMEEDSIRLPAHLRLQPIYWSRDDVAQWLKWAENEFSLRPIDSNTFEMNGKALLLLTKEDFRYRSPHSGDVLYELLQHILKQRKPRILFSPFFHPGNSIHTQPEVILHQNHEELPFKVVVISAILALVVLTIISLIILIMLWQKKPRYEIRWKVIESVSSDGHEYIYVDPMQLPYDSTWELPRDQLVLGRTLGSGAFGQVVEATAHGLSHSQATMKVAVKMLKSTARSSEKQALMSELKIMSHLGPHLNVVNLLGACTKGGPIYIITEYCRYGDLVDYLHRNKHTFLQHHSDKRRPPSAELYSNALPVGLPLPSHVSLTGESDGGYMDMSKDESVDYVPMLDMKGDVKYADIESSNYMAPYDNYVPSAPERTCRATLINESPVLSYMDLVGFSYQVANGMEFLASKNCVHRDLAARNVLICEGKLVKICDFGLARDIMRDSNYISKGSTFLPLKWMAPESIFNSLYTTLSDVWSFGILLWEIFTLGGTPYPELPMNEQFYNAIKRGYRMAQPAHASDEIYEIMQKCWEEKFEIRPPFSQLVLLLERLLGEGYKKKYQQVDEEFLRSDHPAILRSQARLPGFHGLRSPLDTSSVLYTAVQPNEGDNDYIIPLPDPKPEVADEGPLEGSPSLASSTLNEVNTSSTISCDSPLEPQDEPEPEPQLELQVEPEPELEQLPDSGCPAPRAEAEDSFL
# Method: Ex vivo activity of the compounds of the invention was measured. These compounds are thus administered orally to female Balb/c mice at a dose of 10, 30 or 100 mg/kg in suspension or in solution in a vehicle such as methylcellulose/Tween and the inhibition of the tyrosine kinase activity is measured in vitro in a cell test, using plasma collected at 15 minutes, 1 hour and 4 hours.
# 1) Protocol for Administration of the Products to the Mice
# The products are prepared in a mortar with 0.5% Tween 80 and 0.6% methylcellulose qs final volume. Depending on the case, preparations of different vehicles may be used: water, mixture of labrasol solutol 5% glucose-water. The suspended or dissolved products are administered by gavage (10 ml/kg) to female Balb/c mice 8 to 15 weeks old.
# The animals are then collected at the time given by the protocol (15 min, 1 hour, 4 hours, 16 hours).
# The animals are anaesthetized by intraperitoneal injection (10 ml/kg) of a ketamine (0.1 g/kg)-xylazine (20 mg/kg) mixture. […] The blood sample is collected from the vein or the artery using a dry syringe and needle. The blood is immediately transferred into heparin lithium tubes (BD microtainer). Centrifugation for 3 minutes at 12 000 rpm allows recovery of the plasma, on which the biochemical test may be performed after storage by freezing at −20° C.
# 2) Preparation of the HEK Tel/PDGF-R Cells and Measurement of the Phosphorylation of PDGF-R
# In order to detect the ex vivo activity of the products using the mouse plasmas, the HEK cells are transiently transfected beforehand with an expression vector coding for the fusion protein Tel/PDGF-R (fusion protein described previously). After 24 hours of transfection, the cells are deprived of serum overnight and then incubated for 30 minutes with the animal plasmas treated with the products of the invention. The cells are then lysed in RIPA buffer, and detection of the phosphorylation of PDGF-Rβ is then performed via the ELISA technique, using a commercial kit (R&D Systems, DYC1767). The results are expressed as a percentage of inhibition of the autophosphorylation.
# In this test of measurement of the ex vivo activity, the effect of the compounds of the invention is quantified by the percentage of inhibition of phosphorylation of the kinase domain of the PDGF-Rβ receptor in HEK cells, induced by the inhibitory activity of the product present in the plasma of the treated animals, as described in the following table: […]
# [3] = target: T3, fusion protein Tel/PDGF-Rβ (BaF3 Tel/PDGF cells) (Homo sapiens, UniProt P09619); assay: Inhibition of PDGF-Rβ tyrosine kinase activity: proliferation of BaF3 Tel/PDGF cells (CellTiter-Glo, 72 h); format: cell-based, murine; details: 72 hours incubation, read-out: IC50 (concentration that inhibits 50% of the proliferation of the BaF3 Tel/PDGF cells)
# T3 construct: the transmembrane and intracellular part of the PDGF-Rβ receptor; N-terminal part of the Tel transcription factor (ETV6); expressed in transfected cells; host or cells: murine haematopoietic cell line BaF/3; the other entry of the earlier key: ETV6 (P41212, Transcription factor ETV6)
# T3 sequence (P09619 with tags, fused parts or gaps): as above
# Method: Measurement of Inhibition of the Tyrosine Kinase Activity of the PDGF Beta (PDGF-Rβ) (Baf-3 tel/PDGFIRβ) Receptor:
# This test consists in evaluating the effects of the compounds on the tyrosine kinase activity of the PDGF beta receptor.
# The inhibitory effect of the compounds according to the invention towards the tyrosine kinase activity of the PDGF-R receptor was evaluated on the murine haematopoietic cell line BaF/3 transfected with a plasmid coding for the fusion protein Tel/PDGF-Rβ. This fusion protein is found in chronic myelomonocytic myeloid leukaemias (CMML). It comprises the N-terminal part of the Tel transcription factor and the transmembrane and intracellular part of the PDGF-Rβ receptor. This fusion protein is present in dimerized form (presence of an oligomerization domain in the N-terminal part of Tel) and, as a result, leads to constitutive activity of the kinase domain of PDGF-Rβ. This line BaF3 Tel/PDGF has been described in the literature several times and especially, in detailed manner, in the article by M. Carroll et al., PNAS, 1996, 93, 14845-14850.
# as §1, with “The BaF3 Tel/PDGF” for “MV4-11”, “phosphate” for “PBS”, “5×10^4” for “1×10^5”, “[…]” for “μL”
# It is thus seen that the compounds according to the invention have inhibitory activity on the tyrosine kinase activity of PDGF-Rβ. This activity is given by the concentration that inhibits 50% of the proliferation of the BaF3 Tel/PDGF cells (IC50).
SMILES,inhibition at 30 mg/kg ([2]; plasma collected at 15 min),inhibition at 30 mg/kg ([2]; plasma collected at 1 h),inhibition at 30 mg/kg ([2]; plasma collected at 4 h),IC50 [3],melting point,further results
"CCn1c(N)c(C(=O)NC)c(=O)c2ccc(-c3ccc(CC(=O)Nc4cccnc4)cc3)nc21 [compound 3, 2-amino-1-ethyl-N-methyl-4-oxo-7-{4-[2-oxo-2-(pyrid-3-ylamino)ethyl]-phenyl}-1,4-dihydro-1,8-naphthyridine-3-carboxamide]",,,,,,IC50 [1]: 330 nM
"CCn1c(N)c(C(=O)NC)c(=O)c2ccc(-c3ccc(CC(=O)Nc4ccccn4)cc3)nc21 [compound 4, 2-amino-1-ethyl-N-methyl-4-oxo-7-{4-[2-oxo-2-(pyrid-2-ylamino)ethyl]-phenyl}-1,4-dihydro-1,8-naphthyridine-3-carboxamide]",,,,,,IC50 [1]: 210 nM
"CCN1C[C@H](F)C[C@H]1CNC(=O)Cc1ccc(-c2ccc3c(=O)c(C(=O)NC)c(N)n(CC)c3n2)cc1 [compound 26, 2-amino-1-ethyl-7-{4-[2-({[(2S,4R)-1-ethyl-4-fluoropyrrolidin-2-yl]methyl}-amino)-2-oxoethyl]phenyl}-N-methyl-4-oxo-1,4-dihydro-1,8-naphthyridine-3-carboxamide]",58%,67%,20%,,,
"CCn1c(N)c(C(=O)NC)c(=O)c2ccc(-c3ccc(CC(=O)NC[C@H]4CCCN4CCF)cn3)nc21 [compound 29, 2-amino-1-ethyl-7-{5-[2-({[(2R)-1-(2-fluoroethyl)pyrrolidin-2-yl]methyl}-amino)-2-oxoethyl]pyrid-2-yl}-N-methyl-4-oxo-1,4-dihydro-1,8-naphthyridine-3-carboxamide]",,,,35 nM,,
"CCn1c(N)c(C(=O)NC)c(=O)c2ccc(-c3ccc(CC(=O)NC[C@H]4CCCN4CC(F)F)cc3)nc21 [compound 31, 2-amino-7-{4-[2-({[(2R)-1-(2,2-difluoroethyl)pyrrolidin-2-yl]methyl}amino)-2-oxoethyl]phenyl}-1-ethyl-N-methyl-4-oxo-1,4-dihydro-1,8-naphthyridine-3-carboxamide]",85%,68%,42%,,,
"CCn1c(N)c(C(=O)NC)c(=O)c2ccc(-c3ccc(CC(=O)NC[C@H]4CCCN4CC(F)F)cn3)nc21 [compound 34, 2-amino-7-{5-[2-({[(2R)-1-(2,2-difluoroethyl)pyrrolidin-2-yl]methyl}amino)-2-oxoethyl]pyrid-2-yl}-1-ethyl-N-methyl-4-oxo-1,4-dihydro-1,8-naphthyridine-3-carboxamide]",73%,64%,58%,,,
"CCn1c(N)c(C(=O)NC)c(=O)c2ccc(-c3ccc(CC(=O)NCCCc4ccccc4)cc3)nc21 [compound 41, 2-amino-1-ethyl-N-methyl-4-oxo-7-(4-{2-oxo-2-[(3-phenylpropyl)amino]-ethyl}phenyl)-1,4-dihydro-1,8-naphthyridine-3-carboxamide]",,,,5.5 nM,278 °C,
"CCN1CCCC1CNC(=O)CCCc1ccc(-c2ccc3c(=O)c(C(=O)NC)c(N)n(CC)c3n2)cc1 (stereo not drawn) [compound 47, 2-amino-1-ethyl-7-[4-(4-{[(1-ethylpyrrolidin-2-yl)methyl]amino}-4-oxobutyl)phenyl]-N-methyl-4-oxo-1,4-dihydro-1,8-naphthyridine-3-carboxamide]",,,,48 nM,230 °C,
"CCCNC(=O)c1c(N)n(CC)c2nc(-c3ccc(CC(=O)NCC4CCCN4CC)cc3)ccc2c1=O (stereo not drawn) [compound 48, 2-amino-1-ethyl-7-[4-(2-{[(1-ethylpyrrolidin-2-yl)methyl]amino}-2-oxoethyl)phenyl]-4-oxo-N-propyl-1,4-dihydro-1,8-naphthyridine-3-carboxamide]",,,,162 nM,264 °C,
